Reference: ChEMBL document CHEMBL1157728, “Novel small molecule bradykinin B1 receptor antagonists. Part 2: 5-membered diaminoheterocycles” (Bioorg Med Chem Lett, 2010)
≈ marks a conversion by molar mass, not a printed value.

Legend:
B1 bradykinin receptor = target: T1, B1 bradykinin receptor (Homo sapiens, UniProt P46663); experiment: Antagonist activity at bradykinin B1 receptor in human IMR90 cells pretreated with IL1-beta assessed as inhibition of DAKD-induced calcium mobilization; type: functional, cell-based, IMR-90
T1 sequence (P46663 whole entry): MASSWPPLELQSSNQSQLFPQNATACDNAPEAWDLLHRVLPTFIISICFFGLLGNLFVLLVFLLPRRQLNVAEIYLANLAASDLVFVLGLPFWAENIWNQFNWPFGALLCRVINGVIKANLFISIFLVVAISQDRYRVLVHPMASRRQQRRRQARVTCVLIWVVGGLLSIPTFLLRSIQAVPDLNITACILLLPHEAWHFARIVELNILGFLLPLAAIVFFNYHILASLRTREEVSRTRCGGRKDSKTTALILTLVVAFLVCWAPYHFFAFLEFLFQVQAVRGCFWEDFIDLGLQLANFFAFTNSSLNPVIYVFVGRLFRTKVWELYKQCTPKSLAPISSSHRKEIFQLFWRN

[1] = Solubility of the compound; type: physicochemical
[2] = Efflux ratio of permeability from basolateral to apical side to apical to basolateral side in human Caco-2 cells; type: ADME, cell-based
[3] = Solubility in aqueous buffer; type: physicochemical
[4] = Solubility in water; type: physicochemical
[5] = Metabolic stability in human liver microsomes assessed as compound remaining after 1 hr; type: ADME, Microsome; settings: read-out: Stability
[6] = Apparent permeability from apical to basolateral side of human Caco-2 cells; type: ADME, cell-based; settings: read-out: permeability

CC(=O)Nc1nonc1NCc1ccc(-c2cc(Cl)cc(F)c2-c2noc(C)n2)cc1F
IC50 (B1 bradykinin receptor): 7.7 nM | solubility [1]: 21 µM (≈ 9.68 µg/mL)

CC(=O)Nc1nsnc1NCc1ccc(-c2cc(Cl)cc(F)c2-c2noc(C)n2)cc1F
IC50 (B1 bradykinin receptor): 1.7 nM

COc1cc(C(=O)Nn2c(NCc3ccc(-c4cc(Cl)cc(F)c4-c4noc(C)n4)cc3F)nc3ccccc32)on1
IC50 (B1 bradykinin receptor): 0.7 nM | efflux ratio [2]: 7.1 | solubility [3]: 14 µM (≈ 8.29 µg/mL)

COc1cc(C(=O)Nn2c(NCc3ccc(-c4cc(Cl)cc(F)c4-c4noc(C)n4)cc3F)nc(C)c2C)on1
IC50 (B1 bradykinin receptor): 85 nM | solubility [4]: 40 µM (≈ 22.8 µg/mL)

COC(=O)c1c(F)cccc1-c1ccc(CN2CCCC2=O)c(F)c1
IC50 (B1 bradykinin receptor): 42000 nM

CC(=O)Nn1ccnc1NCc1ccc(-c2cc(Cl)cc(F)c2-c2noc(C)n2)cc1F
IC50 (B1 bradykinin receptor): 1.6 nM

CC(=O)Nn1c(Cl)cnc1NCc1ccc(-c2cc(Cl)cc(F)c2-c2noc(C)n2)cc1F
IC50 (B1 bradykinin receptor): 0.3 nM

COc1cc(C(=O)Nn2ccnc2NCc2ccc(-c3cc(Cl)cc(F)c3-c3noc(C)n3)cc2F)on1
IC50 (B1 bradykinin receptor): 1.7 nM | solubility [4]: 42 µM (≈ 22.8 µg/mL)

CC(=O)Nn1c(NCc2ccc(-c3cc(Cl)cc(F)c3-c3noc(C)n3)cc2F)nc(C)c1C
IC50 (B1 bradykinin receptor): 180 nM

COc1cc(C(=O)Nc2nsnc2NCc2ccc(-c3cc(Cl)cc(F)c3-c3noc(C)n3)cc2F)on1
IC50 (B1 bradykinin receptor): 0.6 nM

COC(=O)c1c(F)cccc1-c1ccc(CNC(C)=O)c(F)c1
IC50 (B1 bradykinin receptor): 35000 nM

COC(=O)c1c(F)cccc1-c1ccc(CN2Cc3ccccc3C2=O)c(F)c1
IC50 (B1 bradykinin receptor): 6100 nM

COc1cc(C(=O)Nc2nonc2NCc2ccc(-c3cc(Cl)cc(F)c3-c3noc(C)n3)cc2F)on1
IC50 (B1 bradykinin receptor): 1 nM | efflux ratio [2]: 1 | remaining at 1 h [5]: 61% | solubility [1]: 12 µM (≈ 6.53 µg/mL) | Papp A→B [6]: 48 ×10⁻⁶ cm/s

COc1cc(C(=O)Nc2cn[nH]c2NCc2ccc(-c3cc(Cl)cc(F)c3-c3noc(C)n3)cc2F)on1
IC50 (B1 bradykinin receptor): 3.5 nM

CC(=O)Nn1c(NCc2ccc(-c3cc(Cl)cc(F)c3-c3noc(C)n3)cc2F)nc2ccccc21
IC50 (B1 bradykinin receptor): 4.6 nM | solubility [4]: 40 µM (≈ 20.4 µg/mL)

COC(=O)c1c(F)cccc1-c1ccc(CNc2nc3ccccc3[nH]2)c(F)c1
IC50 (B1 bradykinin receptor): 3500 nM
